Assay results as given in ChEMBL document CHEMBL4312016, “Amide-sulfamide modulators as effective anti-tumor metastatic agents targeting CXCR4/CXCL12 axis” (Eur J Med Chem, 2020).
Calls of active or inactive are those of the source. The calls are words filed in the database; no cut-off is given here.

Experiments:
MDA-MB-231 [1] = assay: Inhibition of cell migration in human MDA-MB-231 cells at 10 uM incubated for 24 hrs by inverted microscopy; type: functional, cell-based
[2] = target: C-X-C chemokine receptor type 4 (Homo sapiens) (UniProt P61073); assay: Competitive binding affinity at CXCR4 in human MDA-MB-231 cells preincubated for 10 mins followed by biotinylated TN14003 addition further incubated for 30 mins by fluorescence microscopy; type: cell-based
[3] = target: C-X-C chemokine receptor type 4 (Homo sapiens) (UniProt P61073); assay: Inhibition of CXCR4-mediated chemotaxis in human MDA-MB-231 cells assessed as reduction in CXCL12alpha-induced cell invasion after 22 hrs by hematoxylin/eosin dye-based matrigel assay relative to control; set-up: concentration or dose not given beside the values; details: concentration not given here
MDA-MB-231 [4] = assay: Inhibition of fibronectin-induced cell adhesion in human MDA-MB-231 cells at 1 to 10 uM incubated for 6 hrs by inverted microscopy; type: functional, cell-based
[5] = target: C-X-C chemokine receptor type 4 (Homo sapiens) (UniProt P61073); assay: Inhibition of CXCR4-mediated chemotaxis in human MDA-MB-231 cells assessed as reduction in CXCL12alpha-induced cell invasion after 22 hrs by hematoxylin/eosin dye-based matrigel assay
MDA-MB-231 [6] = assay: Antimetastatic activity against human MDA-MB-231 cells xenografted in BALB/c mouse assessed as reduction in lung metastasis at 20 mg/kg, ip administered twice a day for 2 weeks and measured on day 14 relative to control; type: functional; details: MDA-MB-231, ip, 336 h
MDA-MB-231 [7] = assay: Inhibition of cell migration in human MDA-MB-231 cells incubated for 24 hrs by inverted microscopy; type: functional, cell-based
HUVEC = assay: Antiangiogenic activity in HUVEC assessed as inhibition of tube formation at 10 uM incubated for 4 hrs by matrigel assay; type: functional, cell-based; details: Homo sapiens
MDA-MB-231 [8] = assay: Inhibition of metastasis in human MDA-MB-231 cells assessed as decrease in p-mTOR expression at 10 uM incubated for 24 hrs by Western blot analysis; type: functional, cell-based
MDA-MB-231 [9] = assay: Inhibition of metastasis in human MDA-MB-231 cells assessed as decrease in p-4E-BP1 expression at 10 uM incubated for 24 hrs by Western blot analysis; type: functional, cell-based
[10] = Toxicity in BALB/c mouse xenografted with human MDA-MB-231 cells assessed as effect on body weight at 20 mg/kg, po administered twice a day for 2 weeks; type: organism-based; details: in vivo, 336 h
MDA-MB-231 [11] = assay: Inhibition of metastasis in human MDA-MB-231 cells assessed as decrease in P70S6K expression at 10 uM incubated for 24 hrs by Western blot analysis; type: functional, cell-based
MDA-MB-231 [12] = assay: Antimetastatic activity against human MDA-MB-231 cells xenografted in BALB/c mouse assessed as reduction in lung metastatic nodules at 20 mg/kg, ip administered twice a day for 2 weeks and measured on day 14; type: functional, organism-based

Sequence of C-X-C chemokine receptor type 4 (Homo sapiens) (P61073 whole entry): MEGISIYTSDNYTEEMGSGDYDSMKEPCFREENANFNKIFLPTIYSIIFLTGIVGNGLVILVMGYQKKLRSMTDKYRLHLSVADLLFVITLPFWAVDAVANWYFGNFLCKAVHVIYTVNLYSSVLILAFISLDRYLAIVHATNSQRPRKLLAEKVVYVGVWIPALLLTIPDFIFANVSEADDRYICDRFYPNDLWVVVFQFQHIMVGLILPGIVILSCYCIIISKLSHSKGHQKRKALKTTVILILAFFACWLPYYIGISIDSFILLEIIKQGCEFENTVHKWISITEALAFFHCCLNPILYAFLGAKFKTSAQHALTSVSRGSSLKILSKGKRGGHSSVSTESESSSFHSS

SMILES	EC [2] [nM]	also measured
Cc1ccccc1C(=O)NCc1ccc(CNS(=O)(=O)c2cccc(Cl)c2)cc1	100	inhibition (MDA-MB-231 [1]): Active; inhibition [3]: 99%; inhibition (MDA-MB-231 [4]): Active
COc1ccccc1C(=O)NCc1ccc(CNS(=O)(=O)c2ccccc2F)cc1	1	inhibition [5]: inactive
COc1ccccc1C(=O)NCc1ccc(CNS(=O)(=O)c2cccc3ccccc23)cc1	> 1000	
Cc1ccccc1C(=O)NCc1ccc(CNS(=O)(=O)c2ccc(Cl)cc2)cc1	1	
Cc1ccccc1C(=O)NCc1ccc(CNS(=O)(=O)c2ccc([N+](=O)[O-])cc2)cc1	100	
O=C(NCc1ccc(CNS(=O)(=O)c2ccc(F)cc2)cc1)c1cccnc1	100	inhibition (MDA-MB-231 [1]): Active; inhibition in vivo at 20 mg/kg (MDA-MB-231 [6]): 43%; inhibition (MDA-MB-231 [7]): Dose-dependent effect; inhibition [3]: 92%; inhibition (HUVEC): Active; inhibition (MDA-MB-231 [8]): Active; inhibition (MDA-MB-231 [9]): Active; Activity [10]: Non-Toxic; inhibition (MDA-MB-231 [11]): Active; Activity (MDA-MB-231 [12]): Active; inhibition (MDA-MB-231 [4]): Active
Cc1ccccc1C(=O)NCc1ccc(CNS(=O)(=O)c2cccc(F)c2)cc1	100	
O=C(NCc1ccc(CNS(=O)(=O)c2cccc3ccccc23)cc1)c1cccnc1	1000	
COc1ccccc1C(=O)NCc1ccc(CNS(=O)(=O)c2cccc(C)c2)cc1	1000	
COc1ccccc1C(=O)NCc1ccc(CNS(=O)(=O)c2ccc([N+](=O)[O-])cc2)cc1	100	
Cc1ccccc1C(=O)NCc1ccc(CNS(=O)(=O)c2ccccc2F)cc1	1000	
O=C(NCc1ccc(CNS(=O)(=O)c2ccc(Cl)cc2)cc1)c1cccnc1	1000	
O=C(NCc1ccc(CNS(=O)(=O)c2cccc(F)c2)cc1)c1cccnc1	1000	
Cc1cccc(S(=O)(=O)NCc2ccc(CNC(=O)c3ccccc3C)cc2)c1	1000	
O=C(NCc1ccc(CNS(=O)(=O)c2cccc(Cl)c2)cc1)c1cccnc1	100	
Cc1ccccc1C(=O)NCc1ccc(CNS(=O)(=O)c2ccccc2Cl)cc1	1000	
O=C(NCc1ccc(CNS(=O)(=O)c2ccc([N+](=O)[O-])cc2)cc1)c1cccnc1	100	inhibition [5]: inactive
COc1ccccc1C(=O)NCc1ccc(CNS(=O)(=O)c2ccccc2C)cc1	1000	
O=C(NCc1ccc(CNS(=O)(=O)c2ccccc2F)cc1)c1cccnc1	100	

Second part, led by results:

EC [2] [nM]	SMILES	also measured
1000	COc1ccccc1C(=O)NCc1ccc(CNS(=O)(=O)c2ccc(Cl)cc2)cc1	
100	Cc1ccccc1C(=O)NCc1ccc(CNS(=O)(=O)c2cccc3ccccc23)cc1	
10	Cc1ccccc1C(=O)NCc1ccc(CNS(=O)(=O)c2ccccc2C)cc1	inhibition (MDA-MB-231 [1]): Active; inhibition [3]: 99%; inhibition (HUVEC): Active; inhibition (MDA-MB-231 [4]): Active
1000	Cc1ccccc1S(=O)(=O)NCc1ccc(CNC(=O)c2cccnc2)cc1	
100	O=C(NCc1ccc(CNS(=O)(=O)c2ccccc2Cl)cc1)c1cccnc1	inhibition (MDA-MB-231 [1]): Active; inhibition [3]: 96%; inhibition (HUVEC): Active; inhibition (MDA-MB-231 [4]): Active
100	COc1ccccc1C(=O)NCc1ccc(CNS(=O)(=O)c2ccc(F)cc2)cc1	
10	Cc1ccccc1C(=O)NCc1ccc(CNS(=O)(=O)c2ccc(F)cc2)cc1	
10	Cc1cccc(S(=O)(=O)NCc2ccc(CNC(=O)c3cccnc3)cc2)c1	
100	COc1ccccc1C(=O)NCc1ccc(CNS(=O)(=O)c2ccccc2Cl)cc1	inhibition (MDA-MB-231 [1]): Active; inhibition [3]: 99%; inhibition (MDA-MB-231 [4]): Active
1000	COc1ccccc1C(=O)NCc1ccc(CNS(=O)(=O)c2cccc(Cl)c2)cc1	
1000	COc1ccccc1C(=O)NCc1ccc(CNS(=O)(=O)c2cccc(F)c2)cc1	
